# Literature values in patent publication US20030162781A1, “Vehicle for applying chemical compounds on wood” (priority 2001, published 2003).
# Details: water as carrier
structure (smiles),measurement,value
O [Water],wood penetration,scarcely penetrates the wood
